{"source": "patent US20250162973A1", "about": "“METHODS OF SYNTHESIS AND USES OF AGRIMOL COMPOUNDS” (Versitech Limited, priority 2022, published 2025)", "key": {"[1]": {"system": "A549 xenograft", "assay": "Human tumor xenograft model", "format": "in vivo, nude mice", "conditions": "AGB 3 mg/kg, tail intravenous injection"}, "[2]": {"biological_target": "T1, TALDO1 (Homo sapiens, UniProt P37837)", "T1 construct": "endogenous in cells", "T1 sequence (P37837 1-337)": "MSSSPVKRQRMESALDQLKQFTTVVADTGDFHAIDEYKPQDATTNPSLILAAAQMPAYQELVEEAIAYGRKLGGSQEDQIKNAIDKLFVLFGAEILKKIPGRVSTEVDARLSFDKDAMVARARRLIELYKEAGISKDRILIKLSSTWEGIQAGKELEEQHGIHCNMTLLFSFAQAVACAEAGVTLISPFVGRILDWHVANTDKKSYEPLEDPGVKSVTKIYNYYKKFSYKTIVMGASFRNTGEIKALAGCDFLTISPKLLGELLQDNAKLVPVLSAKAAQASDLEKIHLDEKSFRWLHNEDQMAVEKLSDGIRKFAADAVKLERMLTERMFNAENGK", "assay": "Tryptophan fluorescence quenching assay", "conditions": "Stern-Volmer analysis; read-out: Kd of AGB binding to TALDO1", "experimental": "(§1) FIG. 5A is a volcano plot (ΔTm, p-value) for TPP data obtained from NCI-H460 cells with 4 μM AGB treatment for 1 h. The criteria were set as ΔTm>2° C. and p<0.05. FIG. 5B is a graph showing results of the tryptophan fluorescence quenching assay for the direct interaction between AGB and three target proteins. Upper, tryptophan fluorescence titration of recombinant proteins with AGB. […] For CS, its fluorescence decrease was saturated when AGB concentrations increased to about 32 μM. Lower, the normalized tryptophan intensities at an emission of 320 nm were plotted as a function of total added concentration of AGB. The dissociation constants (Kd) between AGB and three proteins were then calculated by fitting this plot with Stern-Volmer Equation. […] The fluorescence intensity was presented as percentage relative to control groups. […]\n(§2) To further examine whether AGB interacts directly with the above three identified proteins, the intrinsic tryptophan fluorescence properties of these proteins were examined in the presence of AGB at different concentrations. Upon binding with AGB, proteins experience a change of the tryptophan environment, which can be visualized by fluorescence spectroscopy. As shown in FIG. 5B the tryptophan fluorescence of three proteins were all quenched by AGB in a concentration-dependent manner."}, "[3]": {"biological_target": "HSP60 (Homo sapiens, UniProt P10809)", "sequence (P10809 27-573)": "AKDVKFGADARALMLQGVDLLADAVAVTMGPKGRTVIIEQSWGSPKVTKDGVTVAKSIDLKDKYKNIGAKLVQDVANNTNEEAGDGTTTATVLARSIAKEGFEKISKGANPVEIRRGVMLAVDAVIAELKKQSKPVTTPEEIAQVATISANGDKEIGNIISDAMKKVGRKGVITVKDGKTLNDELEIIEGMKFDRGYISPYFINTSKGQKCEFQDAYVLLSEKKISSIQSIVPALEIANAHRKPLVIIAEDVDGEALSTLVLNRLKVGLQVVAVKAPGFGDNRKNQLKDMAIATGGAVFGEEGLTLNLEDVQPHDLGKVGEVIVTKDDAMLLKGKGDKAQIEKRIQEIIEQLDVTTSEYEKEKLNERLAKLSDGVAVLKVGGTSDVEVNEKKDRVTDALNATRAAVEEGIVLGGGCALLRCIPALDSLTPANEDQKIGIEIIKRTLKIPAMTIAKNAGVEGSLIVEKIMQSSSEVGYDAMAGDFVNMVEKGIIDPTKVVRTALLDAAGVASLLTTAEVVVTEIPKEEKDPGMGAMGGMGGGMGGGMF", "assay": "Tryptophan fluorescence quenching assay", "conditions": "Stern-Volmer analysis; read-out: Kd of AGB binding to HSP60", "experimental": "as §1, §2"}, "[4]": {"biological_target": "T2, CS (Homo sapiens, UniProt O75390)", "T2 sequence (O75390 28-466)": "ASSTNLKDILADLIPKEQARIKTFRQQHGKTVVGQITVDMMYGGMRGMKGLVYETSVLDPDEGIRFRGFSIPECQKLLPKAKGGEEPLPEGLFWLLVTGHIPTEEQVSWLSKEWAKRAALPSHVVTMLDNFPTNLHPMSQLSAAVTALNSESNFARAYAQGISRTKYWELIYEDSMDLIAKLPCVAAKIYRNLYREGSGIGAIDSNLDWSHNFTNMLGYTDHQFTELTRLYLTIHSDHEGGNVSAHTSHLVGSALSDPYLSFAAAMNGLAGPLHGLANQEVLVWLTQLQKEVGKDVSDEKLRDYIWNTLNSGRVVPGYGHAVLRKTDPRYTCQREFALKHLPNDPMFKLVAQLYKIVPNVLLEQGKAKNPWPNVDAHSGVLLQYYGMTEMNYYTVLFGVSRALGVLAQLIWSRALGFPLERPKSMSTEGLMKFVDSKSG", "assay": "CS catalytic activity", "format": "biochemical", "conditions": "dose-dependent", "excerpt": "CS is localized within the mitochondrial matrix and is the key enzyme in the first step of the tricarboxylic acid (TCA) cycle that catalyzes the reaction between acetyl coenzyme A (acetyl CoA) and oxaloacetic acid to form citric acid. […] CS is responsible for the production of citrate in the TCA cycle that mediates mitochondrial aerobic respiration to affect the production of ATP production. Targeting at CS may be feasible to restore the abnormal expression of TCA cycle."}, "[5]": {"system": "stem-like NCI-H460 xenograft", "assay": "Cancer stem like xenograft model", "format": "in vivo, NOD/SCID mice", "conditions": "AGB 3 mg/kg, tail intravenous injection", "experimental": "In vivo anticancer efficacy of AGB was evaluated using the human tumor xenograft model, in which human cancer cells were inoculated into immune-deficiency mice. Briefly, twelve six-week-old (16-18 g) BALB/c nude mice were randomly divided into two groups and both received subcutaneous injection of NCI-H460 cells (2 million cells in 0.1 mL PBS) at its right flank of mice and tumor became palpable after three days of injection. Mice were received intravenous (i.v.) injections of AGB or vehicle control (10% DMSO and 0.05% Tween 80 in normal saline) every two days in two weeks. The length and width of tumor were measured by Vernier caliper and the body weight was monitored every two or three days. At the end of experiment, mice were sacrificed and decapitated. The liver, kidney, and tumor were collected and fixed in 4% formaldehyde for further haematoxylin and eosin (H&E) staining. All animal experiments in this project received human care and study protocols complied with the guidelines of the Laboratory Animal Services Centre of the University of Hong Kong. Tumor sizes and body weight were recorded before the drug injection every time and tumor volume (V) was calculated by the formula V=LW^2/2, where L is tumor length and W is tumor width. […]\nThe in vivo antitumor potential of AGB using the xenograft mouse model was assessed. […]"}}, "data": [{"smiles": "CCCC(=O)c1c(O)c(Cc2c(O)c(Cc3c(O)c(C)c(OC)c(C(=O)CCC)c3O)c(O)c(C(=O)[C@@H](C)CC)c2O)c(O)c(C)c1OC", "note": "[AGB, Agrimol B]", "values": [{"measurement": "tumor growth inhibition rate", "setting": "[1]", "value": 60, "unit": "%"}, {"measurement": "Kd", "setting": "[2]", "value": 22.7, "unit": "µM"}, {"measurement": "Kd", "setting": "[3]", "value": 27, "unit": "µM"}, {"measurement": "AGB concentration at which a significant decrease in the enzyme activity was observed", "setting": "[4]", "value": 5, "unit": "µM"}, {"measurement": "tumor growth inhibition rate", "setting": "[5]", "value": 64, "unit": "%"}]}]}
